We go through one compound from patent US20180235904A1, “CANNABIDIOL COMPOSITIONS INCLUDING MIXTURES AND USES THEREOF” (EARTH SCIENCE TECH, INC., priority 2014, published 2018).

This test relates to RAW264.7 macrophages. The experiment in a line: Stimulation of macrophages, TNFα production (ELISA). The test is classed as cell-based, mouse. As to conditions: 24 h. On the procedure: RAW264.7, a mouse macrophage-like cell line, was used. The cells were cultured in DMEM, supplemented with 10% fetal calf serum (FCS), in 5% CO2, 95% air, at 37° C. in an humidified incubator.
The stimulation of macrophages was assessed by TNFα production, using a mouse TNFα ELISA kit.
To study the effects of hemp oil on macrophages, cells were seeded in a 24-well plate (2×10^5 cell/well) in 1-ml medium in each well for 12 h, and then incubated with hemp oil solution of different CBD concentrations (0-10 μM) for 24 h. Cell supernatant was collected for ELISA analysis.
After the macrophages were incubated with hemp oil of different CBD concentrations (0, 1, 2.5, 5, 10 μM), the TNFα production by the cells was detected.
Background: ELISA stands for enzyme-linked immunosorbent assay.

Structures are written as SMILES.

`C=C(C)[C@@H]1CCC(C)=C[C@H]1c1c(O)cc(CCCCC)cc1O` [CBD, Cannabidiol]: the TNFα production result (CBD concentration of 10 μM) is on record as “induced TNFα production at a significantly higher level”. For the same compound, the “impact on macrophages (TNFα production)” value (CBD concentration range of 0 to 5 μM) is given as “not significant”.
